Results on 16 compounds are retold here after US6642222B2, “Pyrano, piperidino, and thiopyrano compounds and methods of use” (Abbott Laboratories, priority 1998, dated 2003).

Assay [1] relates to Guinea-Pig Bladder (GPB) Cells. Description: Membrane Hyperpolarization (MHP) assay, DiBAC(4)3 / FLIPR. The settings on record: for EC50: membrane hyperpolarization, GPB cells; for Emax: read-out: Maximal Response (% P1075), maximal steady-state hyperpolarization, normalized to 10 μM P1075 (100%); for Maximal Response (% P1075): maximal steady-state hyperpolarization, normalized to 10 μM P1075 (100%).

For another assay, the system named is Landrace Pig Bladder. Description: Functional potassium channel opening activity in isolated bladder strips (field-stimulated twitch). The settings on record: for Index: ED50 for P1075 divided by ED50 for the test agonist, averaged over tissues; for Emax / EC50: Sus scrofa; for Emax / Efficacy (% P1075): maximal efficacy relative to P1075, field stimulated bladder strips; for EC50 / pD2: negative logarithm of ED50; for EC50: read-out: pD2 (converted). As to the method: Compounds were evaluated for functional potassium channel opening activity using tissue strips obtained from Landrace pig bladders. Landrace pig bladders were obtained from female Landrace pigs of 9-30 kg. Landrace pigs were euthanized with an intraperitoneal injection of pentobarbital solution, Somlethal®, J. A. Webster Inc. Sterling Mass. The entire bladder was removed and immediately placed into Krebs Ringer bicarbonate solution (composition, mM: NaCl, 120; […] Dextrose, 4.7; […] Propranolol (0.004 mM) was included in all of the assays to block β-adrenoceptors. The trigonal and dome portions were […], Strips 3-5 […] (mm) wide and 20 mm long were prepared from the remaining tissue cut in a circular fashion. The mucosal layer was removed. One end was fixed to a stationary glass rod and the other to a Grass FT03 transducer at a basal preload of 1.0 g. Two parallel platinum electrodes were included in the stationary glass trod to provide field stimulation of 0.05 Hz, 0.5 milli-seconds at 20 volts. […] Tissues were allowed to equilibrate for at least 60 minutes and primed with 80 mM KCl. A control concentration response curve (cumulative) was generated for each tissue using the potassium channel opener […] as the control agonist. […] After a 60 minute rinsing period, a concentration response curve (cumulative) was generated for the test agonist in the same fashion as that used for the control agonist […]. The maximal efficacy of each compounds (expressed as % relative to […]) is reported. The amount of agent necessary to cause 50% of the agent's maximal response (ED50) was calculated using “ALLFIT” (DeLean et al., Am. J. […] Agonist potencies were also expressed as an index relative to […]. The index was calculated by dividing the ED50 for […] by the ED50 for the test agonist in a given tissue. Each tissue was used for only one test agonist, and the indices obtained from each tissue were averaged to provide an average index of potency.

Turning to `Cl.O=C1CCC2=C1C(c1ccc(F)c(Br)c1)C1=C(CNCC1=O)N2` (single isomer, unassigned; (+)) [Example 6, (+)-5-(3-bromo-4-fluorophenyl)-2,3,5,7,8,9-hexahydro-1H-cyclopenta[b][1,7]naphthyridine-4,6-dione Hydrochloride], in assay [1] (Cavia porcellus), the EC50 is 1000 nM and the Emax came out at 83%. This compound also yielded an Index in the assay on Landrace Pig Bladder (Hydrochloride) of 0.022. Besides, in the assay with Landrace Pig Bladder, the Emax came out at 100% and the EC50 is 3980 nM.
On to `Cl.O=C1CCCC2=C1C(c1ccc(F)c(Br)c1)C1=C(CNCC1=O)N2` (single isomer, unassigned; (+)) [Example 8, (+)-5-(3-bromo-4-fluorophenyl)-2,3,5,8,9,10-hexahydrobenzo[b][1,7]naphthyridine-4,6(1H, 7H)-dione Hydrochloride], for which, in assay [1] (Hydrochloride), the “Maximal Response (% P1075)” value was found to be 33 % P1075 and the EC50 came out at 5000 nM. Also, in the assay with Landrace Pig Bladder (Hydrochloride), the Index is given as 0.023, the “Efficacy (% P1075)” value is 90 % P1075 and the pD2 turned out to be 5.2.
As for `O=C1COCC2=C1C(c1ccc(F)c(Br)c1)C1=C(CCS1(=O)=O)N2` (single isomer, unassigned; (+)) [Example 12, (+)-9-(3-bromo-4-fluorophenyl)-2,3,5,9-tetrahydro-4H-pyrano[3,4-b]thieno[2,3-e]pyridin-8(7H)-one 1,1-dioxide], in assay [1], the “Maximal Response (% P1075)” value was 101 % P1075 and the EC50 worked out at 14 nM. In the assay with Landrace Pig Bladder, the Index is reported as 3.3, the “Efficacy (% P1075)” value was 85 % P1075 and the pD2 turned out to be 7.2.
Turning to `N#Cc1cccc(C2C3=C(COCC3=O)NC3=C2S(=O)(=O)CC3)c1` (single isomer, unassigned; (+)) [Example 15, (+)9-(3-cyanophenyl)-2,3,5,9-tetrahydro-4H-pyrano [3,4-b]thieno[2,3-e]pyridin-8(7H)-one 1,1-dioxide], in assay [1], the “Maximal Response (% P1075)” value turned out to be 90 % P1075 and the EC50 was determined as 640 nM. Moreover, in the assay on Landrace Pig Bladder, the Index is on record as 0.027, the Emax worked out at 100% and the EC50 is 2000 nM.
Consider `O=C1COCC2=C1C(c1ccc(Cl)c([N+](=O)[O-])c1)C1=C(CCS1(=O)=O)N2` (single isomer, unassigned; (+)) [Example 18, (+)-9-(4-chloro-3-nitrophenyl)-2,3,5,9-tetrahydro-4H-pyrano[3,4-b]thieno[2,3-e]pyridin-8(7H)-one 1,1-dioxide], for which, in assay [1], the “Maximal Response (% P1075)” value is on record as 95 % P1075 and the EC50 came to 58 nM. In the assay on Landrace Pig Bladder, this compound registered an Index of 1.6, an Emax of 100% and a pD2 of 7.3.
On to `Cl.O=C1CCC2=C1C(c1ccc(F)c(Br)c1)C1=C(CNCC1=O)N2` (single isomer, unassigned; (-)) [Example 5, (−)-5-(3-bromo-4-fluorolphenyl)-2,3,5,7,8,9-hexahydro-1H-cyclopenta[b][1,7]naphthyridine-4,6-dione Hydrochloride], for which, in assay [1] (Hydrochloride), the “Maximal Response (% P1075)” value was 97 % P1075 and the EC50 is 190 nM. In the assay on Landrace Pig Bladder (Hydrochloride), this compound displayed an Index of 0.16 and a pD2 of 6.4. Further, the “Efficacy (% P1075)” value with Landrace Pig Bladder worked out at 100 % P1075.
As for `Cl.O=C1CCCC2=C1C(c1ccc(F)c(Br)c1)C1=C(CNCC1=O)N2` (single isomer, unassigned; (-)) [Example 7, (−)-5-(3-bromo-4-fluorophenyl)-2,3,5,8,9,10-hexahydrobenzo[b][1,7]naphthyridine-4,6(1H, 7H)-dione Hydrochloride], in assay [1] (Hydrochloride), the “Maximal Response (% P1075)” value was found to be 75 % P1075 and the EC50 was determined as 570 nM. In the assay with Landrace Pig Bladder (Hydrochloride), this compound showed an Index of 0.040 and a pD2 of 5.4. In the assay on Landrace Pig Bladder, the Emax turned out to be 97%.
Take `O=C1COCC2=C1C(c1ccc(F)c(Br)c1)C1=C(CCS1(=O)=O)N2` (single isomer, unassigned; (-)) [Example 13, (−)-9-(3-bromo-4-fluorophenyl)-2,3,5,9-tetrahydro-4H-pyrano[3,4-b]thieno[2,3-e]pyridin-8(7H)-one 1,1-dioxide]: in assay [1], the “Maximal Response (% P1075)” value amounted to 101 % P1075 and the EC50 worked out at 240 nM. In addition, in the assay on Landrace Pig Bladder, the Index is 0.13, the “Efficacy (% P1075)” value was determined as 98 % P1075 and the pD2 was found to be 5.9.
For `O=C1COCC2=C1C(c1ccc(Cl)c([N+](=O)[O-])c1)C1=C(CCS1(=O)=O)N2` (single isomer, unassigned; (-)) [Example 19, (−)-9-(4-chloro-3-nitrophenyl)-2,3,5,9-tetrahydro-4H-pyrano[3,4-b]thieno[2,3-e]pyridin-8(7H)-one 1,1-dioxide], in assay [1], the “Maximal Response (% P1075)” value worked out at 94 % P1075 and the EC50 was 1800 nM. In addition, in the assay with Landrace Pig Bladder, the Index was found to be 0.70, the “Efficacy (% P1075)” value amounted to 100 % P1075 and the pD2 came to 6.0.
The corresponding values for `O=C1COCC2=C1C(c1ccc(F)c(Br)c1)C1=C(COCC1=O)N2` [Example 1, 5-(3-bromo-4-fluorophenyl)-5,10-dihydro-1H,3H-dipyrano[3,4-b:4,3-e]pyridine-4,6(7H,9H)-dione] are 96 % P1075, 27 nM, 0.36, 97 % P1075 and 6.9.
With `Cl.O=C1CCCC2=C1C(c1ccc(F)c(Br)c1)C1=C(CNCC1=O)N2` (centres unmarked) [Example 2, 5-(3-bromo-4-fluorophenyl)-2,3,5,8,9,10-hexahydrobenzo [b][1,7]naphthyridine-4,6(1H, 7H)-dione Hydrochloride], in assay [1] (Hydrochloride), the “Maximal Response (% P1075)” value is 88 % P1075 and the EC50 worked out at 650 nM. Also, in the assay with Landrace Pig Bladder (Hydrochloride), the Index came out at 0.041, the “Efficacy (% P1075)” value came out at 99 % P1075 and the pD2 was found to be 5.8.
As for `Cl.O=C1CNCC2=C1C(c1ccc(F)c(Br)c1)C1=C(CCCS1(=O)=O)N2` (centres unmarked) [Example 9, 10-(3-bromo-4-fluorophenyl)-3,4,6,7,8,10-hexahydro-2H-thiopyrano[3,2-b][1,7]naphthyridin-9(5H)-one 1,1-dioxide Hydrochloride], in assay [1] (Cavia porcellus), the EC50 was determined as 2600 nM and the Emax stood at 89%. In the assay on Landrace Pig Bladder, the Index turned out to be 0.0015, the Emax worked out at 82% and the EC50 is 126000 nM.
As to `Cl.O=C1CNCC2=C1C(c1ccc(F)c(Br)c1)C1=C(CCS1(=O)=O)N2` (centres unmarked) [Example 10, 9-(3-Bromo-4-fluorophenyl)-2,3,5,6,7,9-hexahydrothieno [3,2-b][1,7]naphthyridin-8(4H)-one, 1,1-dioxide hydrochloride], in assay [1], the “Maximal Response (% P1075)” value turned out to be 87 % P1075 and the EC50 was 1400 nM. Besides, in the assay with Landrace Pig Bladder, the Index stood at 0.0028, the “Efficacy (% P1075)” value is recorded as 96 % P1075 and the pD2 turned out to be 4.3.
With `O=C1COCC2=C1C(c1ccc(F)c(Br)c1)C1=C(CCS1(=O)=O)N2` (centres unmarked) [Example 11, 9-(3-bromo-4-fluorophenyl)-2,3,5,9-tetrahydro-4H-pyrano[3,4-b]thieno[2,3-e]pyridin-8(7H)-one 1,1-dioxide], the Emax in assay [1] (Cavia porcellus) was 104%. Also, the EC50 in assay [1] was 23 nM. In the assay on Landrace Pig Bladder, this compound returned an Index of 1.2, an Emax of 91% and a pD2 of 6.8.
On to `O=C1CCCC2=C1C(c1ccc(F)c(Br)c1)C1=C(COCC1=O)N2` (centres unmarked) [Example 20, 5-(3-bromo-4-fluorophenyl)-5,8,9,10-tetrahydro-1H-pyrano[3,4-b]quinoline-4,6(3H, 7H)-dione], for which, in assay [1] (Cavia porcellus), the EC50 is 35 nM and the Emax was found to be 93%. Also, in the assay on Landrace Pig Bladder, the Index came out at 0.43, the Emax was found to be 93% and the EC50 is 2510 nM.
Turning to `O=C1COCC2=C1C(c1ccc(F)c(Br)c1)C1=C(CSCC1=O)N2` (centres unmarked) [Example 22, 5-(3-bromo-4-fluorophenyl)-5,10-dihydro-1H,3H-pyrano[3,4-b]thiopyrano[4,3-e]pyridine-4,6(7H,9H)-dione], in assay [1] (Cavia porcellus), the EC50 turned out to be 46 nM and the Emax was 85%. Moreover, in the assay with Landrace Pig Bladder, the Index stood at 0.027, the Emax is 100% and the EC50 is 2510 nM.
